Results: article PMC9571170, “Exploring Active Ingredients, Beneficial Effects, and Potential Mechanism of Allium tenuissimum L. Flower for Treating T2DM Mice Based on Network Pharmacology and Gut Microbiota” (Nutrients, 2022)

How the values were obtained:
[1] = target: α−Glucosidase (from yeast); test: In vitro α−glucosidase inhibitory activity assay (PNPG substrate); assay type: biochemical; conditions: n=3; acarbose positive control
Method: The α−glucosidase inhibitory activity assay method of A. tenuissimum flower flavonoids was slightly modified based on previous studies. A 96−well plate was used for preparing the mixture consisting of 0.1 M PBS (pH 6.8), 1.0 mg/mL sample solution, and 2 U/mL α−glucosidase, which were incubated at 37 °C for 10 min. 20 μL PNPG solution (2.5 Mm, dissolved in PBS) was added to each well to start the reaction and incubated at 37 °C. Twenty minutes later, 80 μL Na2CO3 solution (0.2 mol/L) was added to each well to terminate the reaction. The absorbance was measured at 405 nm by Tecan Infinite M200 PRO (Tecan Trading Co. Ltd., Shanghai, China). […] The inhibitory rate was calculated by the absorbance formula below:Inhibition% = [1 − (Aa − Ab) / Ac] × 100% a. 20 μL PNPG + 80 μL Na2CO3 + 20 μL PBS + 20 μL sample + 20 μL enzyme; b. 20 μL PNPG + 80 μL Na2CO3 + 40 μL PBS +20 μL sample; c. 20 μL PNPG + 80 μL Na2CO3 + 40 μL PBS + 20 μL enzyme.

[2] = parameters: method as in TCMSP database; conditions: filter condition; ref TCMSP database; cited from earlier work

SMILES | IC50 [1] | Oral bioavailability (OB) [2]
CC(=O)OCC1OC(OC2C(C)OC(Oc3c(-c4ccc(O)cc4)oc4cc(O)cc(O)c4c3=O)C(O)C2O)C(O)C(O)C1O (centres unmarked) [AF−1, multiflorin A] | 289 ± 14 µM | –
O=c1c(O)c(-c2ccc(O)cc2)oc2cc(O)cc(O)c12 [AF−8, kaempferol] | – | ≥ 30%
CC(C)=CCc1cc(-c2oc3cc(O)cc(O)c3c(=O)c2O)ccc1O [AF−11, isolicoflavonol] | 176 ± 6 µM | ≥ 30%
COc1ccc(-c2oc3cc(OC)cc(O)c3c(=O)c2OC2OC(CO)C(O)C(O)C2O)cc1 (centres unmarked) [AF−15, kaempferol−4’,7−dimethyl−3−O−glucoside] | 506 ± 1 µM | –
CN1[C@H]2C[C@H](OC(=O)[C@H](CO)c3ccccc3)C[C@@H]1[C@@H](O)C2 [AF−23, anisodamine] | – | ≥ 30%
O=C(C=Cc1ccc(O)cc1)OCC1OC(Oc2c(-c3ccc(O)cc3)oc3cc(O)cc(O)c3c2=O)C(O)C(O)C1OC(=O)C=Cc1ccc(O)cc1 (stereo not drawn) [AF−33, kaempferol−3−O−β−D−4′′,6′′− di−(E)−p−coumaroyl glucoside] | 300 ± 23 µM | –
O=c1c(OC2OC(COC3OC(CO)C(O)C(O)C3OC3OC(CO)C(O)C(O)C3O)C(O)C(O)C2O)c(-c2ccc(O)cc2)oc2cc(O)cc(O)c12 (stereo not drawn) [AF−34, kaempferol 3−O−β−D−glucopyranosyl−(1→2) −β−D−glucopyranosyl−(1→6)−β−D−glucopyranodide] | 335 ± 1 µM | –
COc1cc(-c2oc3cc(O)cc(O)c3c(=O)c2OC2OC(COC(C)=O)C(O)C(O)C2O)ccc1O (stereo not drawn) [AF−36, isorhamnetin 3−O−β−D−(6−acetyl)−galactopyranoside] | 326 ± 13 µM | –
COc1ccc(-c2oc3cc(O)cc(O)c3c(=O)c2O)cc1CC=C(C)C [AF−38, macasiamenol B] | 230 ± 34 µM | –
COc1ccc(-c2oc3cc(O)cc(O)c3c(=O)c2OC2OC(CO)C(O)C(O)C2O)cc1O (centres unmarked) [AF−40, tamarixin] | 282 ± 3 µM | –
